Measured values reported in the NIST ThermoML archive (doi:10.1021/je0301489).
Where “and” joins values, the source holds several entries; their conditions need not be identical. Equal entries are not always repeated.

Tests used:
[1] = 101.33 kPa, Liquid
[2] = refractive index (Na D-line) (dimensionless); conditions: 101.33 kPa, Liquid
[3] = refractive index (Na D-line) (dimensionless); xn = mol fraction of the nth substance listed; conditions: 101.33 kPa, Liquid
[4] = xn = mol fraction of the nth substance listed; conditions: 101.33 kPa, Liquid

C1COCCO1 [1,4-dioxane]
Conditions | mass density, 298.15 K [kg/m3] | mass density, 303.15 K [kg/m3] | mass density, 308.15 K [kg/m3] | refractive index, 298.15 K | refractive index, 303.15 K | refractive index, 308.15 K | speed of sound, 298.15 K | viscosity, 298.15 K | viscosity, 303.15 K [mPa·s] | viscosity, 308.15 K [mPa·s]
[1] | 1027.6 | 1021.9 | 1016.2 | – | – | – | 1347 m/s and 1348 m/s | 1.166 mPa·s and 1.167 mPa·s | 1.069 | 0.984
[2] | – | – | – | 1.4201 and 1.4202 | 1.417 | 1.4144 | – | – | – | –

C1COCCO1 [1,4-dioxane] + CCCCCCCCOC(=O)c1ccccc1C(=O)OCCCCCCCC
x1 = 1
Conditions | mass density, 298.15 K [kg/m3] | mass density, 303.15 K [kg/m3] | mass density, 308.15 K [kg/m3] | refractive index, 298.15 K | refractive index, 303.15 K | refractive index, 308.15 K | speed of sound, 298.15 K [m/s] | viscosity, 298.15 K [mPa·s] | viscosity, 303.15 K [mPa·s] | viscosity, 308.15 K [mPa·s]
[3] | – | – | – | 1.4202 | 1.417 | 1.4144 | – | – | – | –
[4] | 1027.6 | 1021.9 | 1016.2 | – | – | – | 1348 | 1.166 | 1.069 | 0.984

C1COCCO1 [1,4-dioxane] + CCOC(=O)C(=O)OCC
x1 = 1
Conditions | mass density, 298.15 K [kg/m3] | mass density, 303.15 K [kg/m3] | mass density, 308.15 K [kg/m3] | refractive index, 298.15 K | refractive index, 303.15 K | refractive index, 308.15 K | speed of sound, 298.15 K [m/s] | viscosity, 298.15 K [mPa·s] | viscosity, 303.15 K [mPa·s] | viscosity, 308.15 K [mPa·s]
[3] | – | – | – | 1.4202 | 1.417 | 1.4144 | – | – | – | –
[4] | 1027.6 | 1021.9 | 1016.2 | – | – | – | 1348 | 1.167 | 1.069 | 0.984

C1COCCO1 [1,4-dioxane] + CCOC(=O)CC(C)=O
x1 = 1
Conditions | mass density, 298.15 K [kg/m3] | mass density, 303.15 K [kg/m3] | mass density, 308.15 K [kg/m3] | refractive index, 298.15 K | refractive index, 303.15 K | refractive index, 308.15 K | speed of sound, 298.15 K [m/s] | viscosity, 298.15 K [mPa·s] | viscosity, 303.15 K [mPa·s] | viscosity, 308.15 K [mPa·s]
[3] | – | – | – | 1.4201 | 1.417 | 1.4144 | – | – | – | –
[4] | 1027.6 | 1021.9 | 1016.2 | – | – | – | 1347 | 1.166 | 1.069 | 0.984

C1COCCO1 [1,4-dioxane] + CCOC(=O)c1ccccc1C(=O)OCC
x1 = 1
Conditions | mass density, 298.15 K [kg/m3] | mass density, 303.15 K [kg/m3] | mass density, 308.15 K [kg/m3] | refractive index, 298.15 K | refractive index, 303.15 K | refractive index, 308.15 K | speed of sound, 298.15 K [m/s] | viscosity, 298.15 K [mPa·s] | viscosity, 303.15 K [mPa·s] | viscosity, 308.15 K [mPa·s]
[3] | – | – | – | 1.4202 | 1.417 | 1.4144 | – | – | – | –
[4] | 1027.6 | 1021.9 | 1016.2 | – | – | – | 1347 | 1.167 | 1.069 | 0.984

CCOC(=O)C(=O)OCC [diethyl ethanedioate] + C1COCCO1
Conditions | mass density, 298.15 K [kg/m3] | mass density, 303.15 K [kg/m3] | mass density, 308.15 K [kg/m3] | refractive index, 298.15 K | refractive index, 303.15 K | refractive index, 308.15 K | speed of sound, 298.15 K [m/s] | viscosity, 298.15 K [mPa·s] | viscosity, 303.15 K [mPa·s] | viscosity, 308.15 K [mPa·s]
[3], x2 = 0 | – | – | – | 1.4084 | 1.406 | 1.4034 | – | – | – | –
[3], x2 = 0.1094 | – | – | – | 1.4092 | 1.4068 | 1.4043 | – | – | – | –
[3], x2 = 0.2069 | – | – | – | 1.4101 | 1.4077 | 1.4052 | – | – | – | –
[3], x2 = 0.3098 | – | – | – | 1.4112 | 1.4087 | 1.4062 | – | – | – | –
[3], x2 = 0.4009 | – | – | – | 1.4119 | 1.4094 | 1.407 | – | – | – | –
[3], x2 = 0.4975 | – | – | – | 1.4129 | 1.4106 | 1.4084 | – | – | – | –
[3], x2 = 0.5978 | – | – | – | 1.4144 | 1.4118 | 1.409 | – | – | – | –
[3], x2 = 0.7008 | – | – | – | 1.4157 | 1.4132 | 1.4106 | – | – | – | –
[3], x2 = 0.7971 | – | – | – | 1.417 | 1.4145 | 1.412 | – | – | – | –
[3], x2 = 0.8976 | – | – | – | 1.4183 | 1.4158 | 1.4132 | – | – | – | –
[4], x2 = 0 | 1072.9 | 1066.2 | 1060.8 | – | – | – | 1276 | 1.759 | 1.581 | 1.437
[4], x2 = 0.1094 | 1070.9 | 1064.2 | 1058.1 | – | – | – | 1284 | 1.69 | 1.539 | 1.388
[4], x2 = 0.2069 | 1067.5 | 1061.4 | 1055.3 | – | – | – | 1292 | 1.631 | 1.487 | 1.343
[4], x2 = 0.3098 | 1064.4 | 1058.3 | 1052.1 | – | – | – | 1301 | 1.566 | 1.428 | 1.291
[4], x2 = 0.4009 | 1061.1 | 1055 | 1048.9 | – | – | – | 1310 | 1.505 | 1.375 | 1.245
[4], x2 = 0.4975 | 1057.3 | 1051.1 | 1045 | – | – | – | 1320 | 1.44 | 1.316 | 1.193
[4], x2 = 0.5978 | 1052.8 | 1046.7 | 1040.6 | – | – | – | 1329 | 1.375 | 1.259 | 1.143
[4], x2 = 0.7008 | 1047.7 | 1041.5 | 1035.4 | – | – | – | 1337 | 1.312 | 1.203 | 1.094
[4], x2 = 0.7971 | 1042.1 | 1036.1 | 1029.9 | – | – | – | 1343 | 1.259 | 1.157 | 1.055
[4], x2 = 0.8976 | 1035.5 | 1029.5 | 1023.6 | – | – | – | 1347 | 1.206 | 1.111 | 1.016

CCOC(=O)c1ccccc1C(=O)OCC [diethyl phthalate] + C1COCCO1
Conditions | mass density, 298.15 K [kg/m3] | mass density, 303.15 K [kg/m3] | mass density, 308.15 K [kg/m3] | refractive index, 298.15 K | refractive index, 303.15 K | refractive index, 308.15 K | speed of sound, 298.15 K [m/s] | viscosity, 298.15 K [mPa·s] | viscosity, 303.15 K [mPa·s] | viscosity, 308.15 K [mPa·s]
[3], x2 = 0 | – | – | – | 1.5001 | 1.4978 | 1.4958 | – | – | – | –
[3], x2 = 0.1133 | – | – | – | 1.4962 | 1.494 | 1.4917 | – | – | – | –
[3], x2 = 0.2083 | – | – | – | 1.4924 | 1.4902 | 1.4882 | – | – | – | –
[3], x2 = 0.3086 | – | – | – | 1.4882 | 1.486 | 1.4837 | – | – | – | –
[3], x2 = 0.409 | – | – | – | 1.4826 | 1.4805 | 1.4783 | – | – | – | –
[3], x2 = 0.5026 | – | – | – | 1.4768 | 1.4747 | 1.4724 | – | – | – | –
[3], x2 = 0.5985 | – | – | – | 1.47 | 1.4676 | 1.4653 | – | – | – | –
[3], x2 = 0.702 | – | – | – | 1.4608 | 1.4585 | 1.4564 | – | – | – | –
[3], x2 = 0.8001 | – | – | – | 1.4504 | 1.4481 | 1.4457 | – | – | – | –
[3], x2 = 0.8975 | – | – | – | 1.4376 | 1.435 | 1.4326 | – | – | – | –
[4], x2 = 0 | 1115.1 | 1110.2 | 1105.6 | – | – | – | 1446 | 7.926 | 6.129 | 4.893
[4], x2 = 0.1133 | 1110.7 | 1105.8 | 1101 | – | – | – | 1435 | 6.52 | 5.327 | 4.134
[4], x2 = 0.2083 | 1106.5 | 1101.5 | 1096.6 | – | – | – | 1427 | 5.536 | 4.567 | 3.597
[4], x2 = 0.3086 | 1101.4 | 1096.3 | 1091.4 | – | – | – | 1418 | 4.593 | 3.813 | 3.032
[4], x2 = 0.409 | 1095.5 | 1090.4 | 1085.3 | – | – | – | 1408 | 3.793 | 3.18 | 2.568
[4], x2 = 0.5026 | 1089.1 | 1084 | 1078.7 | – | – | – | 1399 | 3.122 | 2.637 | 2.151
[4], x2 = 0.5985 | 1081.4 | 1076.1 | 1070.9 | – | – | – | 1390 | 2.544 | 2.184 | 1.824
[4], x2 = 0.702 | 1071.6 | 1066.1 | 1060.8 | – | – | – | 1380 | 2.037 | 1.753 | 1.468
[4], x2 = 0.8001 | 1060.2 | 1054.7 | 1049.2 | – | – | – | 1370 | 1.641 | 1.436 | 1.23
[4], x2 = 0.8975 | 1046.3 | 1040.7 | 1035 | – | – | – | 1359 | 1.319 | 1.18 | 1.042
